Measured values as given in patent US7659399B2, “1-thia-2,4a-diaza-cyclopenta[b]napththalene-3,4-diones and related compounds as anti-infective agents” (Achillion Pharmaceuticals, Inc., priority 2005, dated 2010).
Counter-ions that a name gives are not always drawn.

How the values were obtained:
[1] = system: E. coli ATCC 25922; test: Minimum inhibitory concentration (MIC) assay, broth microdilution; type: cell-based; details: Escherichia coli, ATCC25922
Method: (§1) The antimicrobial activity of the compounds of the invention may be evaluated by a number of methods, including the following visual minimum inhibitory concentration (MIC) assay. This assay determines the minimum concentration of compound required to inhibit growth of a bacterial strain.
(§2) Whole-cell antibacterial activity is determined by broth microdilution using conditions recommended by the National Committee for Clinical Laboratory Standards (NCCLS).
(§3) Test compounds are dissolved in DMSO and diluted 1:50 in Mueller-Hinton II broth (Becton-Dickinson) to produce a 256 μg/ml stock solution. In a 96-well microtiter plate, the compound solution is serially two-fold diluted in Mueller-Hinton II broth. After the compounds are diluted, a […] aliquot of the test organism (˜1×10^6 cfu/mL) is added to each well of the microtiter plate. The final test concentrations range from 0.125-128 μg/mL. Inoculated plates are incubated in ambient air at 37° C. for 18 to 24 hours. The organisms selected for testing included laboratory strains S. aureus ATCC 29213 and E. coli ATCC 25922 (strains purchased from American Type Culture Collection, Manassas, Va.). The minimum inhibitory concentration (MIC) was determined as the lowest concentration of compound that inhibited visible growth of the test organism.

[2] = system: S. aureus ATCC 29213; test: as above; type: cell-based; details: Staphylococcus aureus, ATCC29213
Method: as §1, §2, §3

[3] = target: T1, E. coli DNA gyrase (Escherichia coli, UniProt P0AES4+P0AES6); test: DNA gyrase supercoiling assay; type: biochemical
T1 construct: made in house; host or cells: E. coli
Method: Enzyme activity is measured by a supercoiling assay that monitors the ATP-dependent conversion of relaxed pBR322 DNA to the supercoiled form. Analysis is done by gel electrophoresis through 1% agarose/TBE gel. DNA is visualized with an Alpha Imager 2200 Analysis System and the IC50 determined by nonlinear regression analysis with Graphpad Prism software. E. coli DNA gyrase enzyme subunits, gyrA and gyrB, are purified to homogeneity from over-expression constructs in E. coli.

[4] = target: T2, S. aureus topoisomerase IV (Staphylococcus aureus, UniProt P0C1S7+P0C1U9); test: Topoisomerase IV decatenation assay; type: biochemical; details: decatenation of kinetoplast DNA; read-out: inhibition of S. aureus topoisomerase IV activity IC50
T2 construct: made in house; host or cells: E. coli
Method: Enzyme activity is measured by a decatenation assay that monitors the ATP-dependent unlinking of DNA minicircles from kinetoplast DNA. Analysis is done by gel electrophoresis through 1% agarose/TBE gel. DNA is visualized with an Alpha Imager 2200 Analysis System and the IC50 determined by nonlinear regression analysis with Graphpad Prism software. S. aureus topoismerase IV enzyme subunits, grlA and grlB, are purified to homogeneity from over-expression plasmids in E. coli.

[5] = target: S. aureus DNA gyrase (Staphylococcus aureus, UniProt P0A0K8+P20831); test: DNA gyrase supercoiling assay; type: biochemical; details: do not inhibit
[6] = system: CHO (Chinese hamster ovary); details: CHO cells; positive control, known CC50; cited from earlier work
[7] = system: HEP 2 (laryngeal carcinoma); details: HEP 2 cells; positive control, known CC50; cited from earlier work

T1 sequence (P0AES4 whole entry, one chain of several): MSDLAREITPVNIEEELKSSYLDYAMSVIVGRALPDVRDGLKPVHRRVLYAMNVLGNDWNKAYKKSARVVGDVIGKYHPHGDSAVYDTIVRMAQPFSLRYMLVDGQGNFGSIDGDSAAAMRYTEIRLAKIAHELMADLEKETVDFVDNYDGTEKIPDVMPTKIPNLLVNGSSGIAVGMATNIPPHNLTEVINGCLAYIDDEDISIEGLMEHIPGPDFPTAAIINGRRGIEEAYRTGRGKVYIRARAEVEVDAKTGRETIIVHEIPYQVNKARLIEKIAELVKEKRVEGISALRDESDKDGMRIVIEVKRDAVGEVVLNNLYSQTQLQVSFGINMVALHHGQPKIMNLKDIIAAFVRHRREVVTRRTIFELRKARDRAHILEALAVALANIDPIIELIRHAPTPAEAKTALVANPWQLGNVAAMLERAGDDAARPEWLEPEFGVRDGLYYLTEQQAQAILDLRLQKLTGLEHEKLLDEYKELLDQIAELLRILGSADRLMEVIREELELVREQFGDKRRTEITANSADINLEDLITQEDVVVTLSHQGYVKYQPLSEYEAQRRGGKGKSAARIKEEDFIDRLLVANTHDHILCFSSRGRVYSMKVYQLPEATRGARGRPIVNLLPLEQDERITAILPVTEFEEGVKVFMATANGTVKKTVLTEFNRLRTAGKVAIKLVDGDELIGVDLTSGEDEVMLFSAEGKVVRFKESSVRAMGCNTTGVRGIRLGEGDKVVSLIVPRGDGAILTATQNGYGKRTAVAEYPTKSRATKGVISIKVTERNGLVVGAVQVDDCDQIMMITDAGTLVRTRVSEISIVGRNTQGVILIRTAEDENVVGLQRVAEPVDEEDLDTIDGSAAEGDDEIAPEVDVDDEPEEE
T2 sequence (P0C1U9 whole entry): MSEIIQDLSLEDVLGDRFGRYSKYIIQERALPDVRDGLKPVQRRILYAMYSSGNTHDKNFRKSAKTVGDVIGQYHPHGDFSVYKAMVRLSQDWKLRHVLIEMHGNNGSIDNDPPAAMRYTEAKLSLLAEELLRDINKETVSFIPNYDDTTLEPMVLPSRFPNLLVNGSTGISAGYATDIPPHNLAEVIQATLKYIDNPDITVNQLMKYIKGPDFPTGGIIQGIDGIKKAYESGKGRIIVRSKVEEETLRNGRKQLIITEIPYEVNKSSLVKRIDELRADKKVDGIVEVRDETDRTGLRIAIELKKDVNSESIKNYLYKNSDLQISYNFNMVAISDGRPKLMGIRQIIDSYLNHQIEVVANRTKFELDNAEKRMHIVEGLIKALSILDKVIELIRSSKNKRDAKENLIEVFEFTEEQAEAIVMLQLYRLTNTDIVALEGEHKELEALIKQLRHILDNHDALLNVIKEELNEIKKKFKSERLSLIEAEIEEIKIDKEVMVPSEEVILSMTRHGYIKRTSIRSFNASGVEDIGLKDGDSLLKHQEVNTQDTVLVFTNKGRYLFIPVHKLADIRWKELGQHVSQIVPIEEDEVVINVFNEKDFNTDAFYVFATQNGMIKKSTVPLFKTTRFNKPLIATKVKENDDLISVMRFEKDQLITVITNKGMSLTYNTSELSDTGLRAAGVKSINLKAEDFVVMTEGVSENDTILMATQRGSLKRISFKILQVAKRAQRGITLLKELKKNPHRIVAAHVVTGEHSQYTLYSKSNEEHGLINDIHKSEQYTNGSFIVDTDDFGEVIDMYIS
T2 sequence (P0C1S7 whole entry): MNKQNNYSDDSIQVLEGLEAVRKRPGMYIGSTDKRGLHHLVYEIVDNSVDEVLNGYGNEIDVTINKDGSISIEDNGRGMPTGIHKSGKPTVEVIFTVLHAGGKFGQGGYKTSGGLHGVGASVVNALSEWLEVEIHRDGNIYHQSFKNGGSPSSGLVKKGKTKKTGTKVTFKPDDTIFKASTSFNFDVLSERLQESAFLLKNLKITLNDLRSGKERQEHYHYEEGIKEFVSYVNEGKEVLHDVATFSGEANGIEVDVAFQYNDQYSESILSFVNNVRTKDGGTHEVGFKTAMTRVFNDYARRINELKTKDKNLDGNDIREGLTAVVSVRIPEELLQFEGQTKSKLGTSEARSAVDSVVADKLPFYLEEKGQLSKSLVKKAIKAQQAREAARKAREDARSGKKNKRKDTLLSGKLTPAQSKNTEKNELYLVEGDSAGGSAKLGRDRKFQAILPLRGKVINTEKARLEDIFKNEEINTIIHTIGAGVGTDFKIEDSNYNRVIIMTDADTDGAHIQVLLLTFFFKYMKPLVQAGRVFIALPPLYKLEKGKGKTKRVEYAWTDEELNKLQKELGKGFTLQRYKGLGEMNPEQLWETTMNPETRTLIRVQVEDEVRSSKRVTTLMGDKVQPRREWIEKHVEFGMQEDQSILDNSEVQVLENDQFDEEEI
Sequence of S. aureus DNA gyrase (P20831 whole entry): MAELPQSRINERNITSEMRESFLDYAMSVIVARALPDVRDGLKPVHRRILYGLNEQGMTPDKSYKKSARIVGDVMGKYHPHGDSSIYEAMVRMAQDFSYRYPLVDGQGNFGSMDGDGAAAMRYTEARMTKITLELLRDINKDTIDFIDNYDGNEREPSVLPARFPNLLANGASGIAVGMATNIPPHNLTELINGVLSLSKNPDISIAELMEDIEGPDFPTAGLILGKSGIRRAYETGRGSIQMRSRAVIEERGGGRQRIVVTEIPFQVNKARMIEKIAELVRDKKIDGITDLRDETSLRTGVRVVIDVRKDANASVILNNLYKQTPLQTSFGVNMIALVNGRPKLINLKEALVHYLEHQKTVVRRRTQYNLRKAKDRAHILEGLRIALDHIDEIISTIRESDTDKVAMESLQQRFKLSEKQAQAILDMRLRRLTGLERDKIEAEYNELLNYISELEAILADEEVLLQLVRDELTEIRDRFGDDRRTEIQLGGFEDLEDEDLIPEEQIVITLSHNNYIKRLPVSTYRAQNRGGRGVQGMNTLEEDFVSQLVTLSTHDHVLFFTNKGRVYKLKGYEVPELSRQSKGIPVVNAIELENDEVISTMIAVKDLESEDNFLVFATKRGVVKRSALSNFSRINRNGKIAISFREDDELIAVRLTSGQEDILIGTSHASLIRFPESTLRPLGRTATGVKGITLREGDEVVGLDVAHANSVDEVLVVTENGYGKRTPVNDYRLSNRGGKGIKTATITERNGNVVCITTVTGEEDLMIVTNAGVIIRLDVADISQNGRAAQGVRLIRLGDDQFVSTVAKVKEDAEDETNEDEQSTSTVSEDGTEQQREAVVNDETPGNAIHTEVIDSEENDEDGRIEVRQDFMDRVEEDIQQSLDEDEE
Sequence of S. aureus DNA gyrase (P0A0K8 whole entry): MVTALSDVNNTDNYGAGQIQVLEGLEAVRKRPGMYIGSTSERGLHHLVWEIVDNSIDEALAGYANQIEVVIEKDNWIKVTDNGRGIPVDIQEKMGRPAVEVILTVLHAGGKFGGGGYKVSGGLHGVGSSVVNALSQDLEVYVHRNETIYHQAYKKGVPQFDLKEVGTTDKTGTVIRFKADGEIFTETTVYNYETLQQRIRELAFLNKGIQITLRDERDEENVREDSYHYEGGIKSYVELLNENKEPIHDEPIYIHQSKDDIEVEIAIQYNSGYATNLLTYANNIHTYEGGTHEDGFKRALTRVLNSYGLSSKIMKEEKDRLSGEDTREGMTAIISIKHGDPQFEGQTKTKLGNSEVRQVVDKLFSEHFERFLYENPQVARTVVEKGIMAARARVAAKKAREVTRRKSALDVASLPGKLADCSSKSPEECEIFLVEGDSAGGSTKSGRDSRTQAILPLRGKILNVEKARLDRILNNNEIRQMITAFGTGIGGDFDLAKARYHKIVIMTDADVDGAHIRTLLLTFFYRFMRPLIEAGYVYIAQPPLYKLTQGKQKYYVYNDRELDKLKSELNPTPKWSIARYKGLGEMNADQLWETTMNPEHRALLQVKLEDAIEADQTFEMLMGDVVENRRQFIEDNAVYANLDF

| SMILES | melting point | MIC [1] | MIC [2] | IC50 [3] | IC50 [4] | IC50 [5] | CC50 [6] | CC50 [7] |
| --- | --- | --- | --- | --- | --- | --- | --- | --- |
| CCc1c2s[nH]c(=O)c2c(=O)n2ccc(-c3ccncc3)cc12 (as salt: hydrochloride) [Compound 8, 9-Ethyl-7-pyridin-4-yl-1-thia-2,4a-diaza-cyclopenta[b]naphthalene-3,4-dione hydrochloride] | 289 to 290 °C (dec.) |  |  |  |  |  |  |  |
| CCc1c2s[nH]c(=O)c2c(=O)n2ccc(-c3cc(C)nc(C)c3)cc12 (as salt: hydrochloride) [Compound 9, 7-(2,6-Dimethylpyridin-4-yl)-9-ethyl-1-thia-2,4a-diaza-cyclopenta[b]naphthalene-3,4-dione hydrochloride] | 279 to 280 °C (dec.) |  |  |  |  |  |  |  |
| CCc1c2s[nH]c(=O)c2c(=O)n2ccc(-c3ccncc3)cc12 [Compound 8, 9-Ethyl-7-pyridin-4-yl-1-thia-2,4a-diaza-cyclopenta[b]naphthalene-3,4-dione hydrochloride] |  | 10 µg/mL | 10 µg/mL | < 1 µM | < 10 µM | > 200 µM |  |  |
| CCc1c2s[nH]c(=O)c2c(=O)n2ccc(-c3cc(C)nc(C)c3)cc12 [Compound 9, 7-(2,6-Dimethylpyridin-4-yl)-9-ethyl-1-thia-2,4a-diaza-cyclopenta[b]naphthalene-3,4-dione hydrochloride] |  | 10 µg/mL | 10 µg/mL | < 1 µM | < 10 µM | > 200 µM |  |  |
| CC(C)(C)c1ccc(C(O)CCCN2CCC(C(O)(c3ccccc3)c3ccccc3)CC2)cc1 (centres unmarked) [Terfenadine] |  |  |  |  |  |  | 4.3 to 6.5 µM | 3 to 5 µM |
